Results reported in patent EP0126344A2, “Tripeptide esters of therapeutic agents” (ABBOTT LABORATORIES, priority 1983, dated 1984).

Columns and labels:
[1] = test system: Staph. aureus, strain 642a; test: In vivo activity: survival of infected mice, subcutaneous administration (Example 28); conditions: for ED50: Staphylococcus aureus, 642A, sc, 120 h, subcutaneous administration, mice infected with 100 x LD50 Staph. aureus, read-out: effective dose (ED50); for Mice Surviving: groups of ten mice, five days after infection
Experimental: (§1) Eight groups of ten female CF-1 mice, each weighing 18-20 g. were supplied with food and water ad lib and injected intraperitoneally with a lethal dose (100 x LD50) of Staph. aureus, strain 642a. At 1 and 5 hours after intraperitoneal infection, the mice were administered by intraperitoneal injection equal doses of either erythromycin A ("A") or 4"-L-leu-gly-L-pro-erythromycin A ("B") dissolved in a phosphate buffered saline solution.
The procedure of Example 25 was repeated except that the erythromycin A and 4"-L-leu-gly-L-pro-erythromycin A were administered subcutaneously instead of intraperitoneally.

[2] = test system: Staph. aureus, strain 642a; test: In vivo activity: survival of infected mice, oral administration (Example 29); conditions: after 0.5 ml homogenized milk; for ED50: Staphylococcus aureus, 642A, 120 h, oral administration, mice infected with 100 x LD50 Staph. aureus, read-out: effective dose (ED50); for Mice Surviving: groups of ten mice, five days after infection
Experimental: as §1
The procedure of Example 25 was repeated except that the erythromycin A and 4"-L-leu-gly-L-pro erythromycin A were administered orally, and that 0.5 ml of homogenized milk was administered orally to each mouse prior to administration of the test compound to minimize acid degredation of the test compound.

[3] = test system: Staph. aureus, strain 642a; test: In vivo activity: survival of infected mice, intraperitoneal administration (Example 27); conditions: for ED50: Staphylococcus aureus, 642A, ip, 120 h, intraperitoneal injection, mice infected with 100 x LD50 Staph. aureus, read-out: effective dose (ED50); for Mice Surviving: 5 days after infection
Experimental: as §1

gastrointestinal tissue = test: Gastrointestinal motility in anesthetized dogs, strain gauge transducers (Example 30); conditions: 1.0 mg./kg. intravenously; strain gauge readings; result in words
Experimental: Female beagle dogs having a weight of 7.0 to 11.0 kg. were anesthetized with pentobarbital and maintained in surgical anesthesia by supplemental I.V. injections of pentobarbital as needed. The body temperature of each dog was maintained at 36-37° C. The trachea was cannulated and the animal maintained on a respirator at 12 strokes/minute with a volume of 200 ml./stroke. The femoral artery was cannulated for blood pressure recording and both femoral veins were cannulated for intravenous injections and blood collection. Each dog was then prepared for gastrointestinal motility determinations as follows. […]
After an equilibration period of 15 minutes, a dose of 50 pg/.kg. of methacholine was administered intravenously to the dog over a period of thirty seconds and the strain gauge readings were monitored to obtain a standard measurement of reactivity of the gastrointestinal tract.
The strain gauge readings were again monitored to determine effect of the test compound on motility of the gastrointestinal tissue.

## CC[C@H]1OC(=O)[C@H](C)[C@@H](O[C@H]2C[C@@](C)(OC)[C@@H](O)[C@H](C)O2)[C@H](C)[C@@H](O[C@@H]2O[C@H](C)C[C@H](N(C)C)[C@H]2O)[C@](C)(O)C[C@@H](C)C(=O)[C@H](C)[C@@H](O)[C@]1(C)O [A, erythromycin A]
[1]
  ED50: 2.8 mg/kg
[1]; total dose 0.4 mg/kg subcutaneous
  Mice Surviving: 1
[1]; total dose 1.9 mg/kg subcutaneous
  Mice Surviving: 1
[1]; total dose 7.5 mg/kg subcutaneous
  Mice Surviving: 10
[1]; total dose 30 mg/kg subcutaneous
  Mice Surviving: 10
[2]
  ED50: 110 mg/kg
[2]; total dose 2.3 mg/kg oral
  Mice Surviving: 0
[2]; total dose 9.4 mg/kg oral
  Mice Surviving: 0
[2]; total dose 37.5 mg/kg oral
  Mice Surviving: 0
[2]; total dose 150 mg/kg oral
  Mice Surviving: 7
[3]
  ED50: < 0.4 mg/kg
[3]; total dose 0.4 mg/kg intraperitoneal, groups of ten mice
  Mice Surviving: 9
[3]; total dose 1.9 mg/kg intraperitoneal, groups of ten mice
  Mice Surviving: 9
[3]; total dose 7.5 mg/kg intraperitoneal, groups of ten mice
  Mice Surviving: 10
[3]; total dose 30 mg/kg intraperitoneal, at 1 and 5 hours after infection, groups of ten female CF-1 mice
  Mice Surviving: 10

## CC[C@H]1OC(=O)[C@H](C)[C@@H](O[C@H]2C[C@@](C)(OC)[C@@H](OC(=O)[C@@H]3CCCN3C(=O)CNC(=O)[C@@H](N)CC(C)C)[C@H](C)O2)[C@H](C)[C@@H](O[C@@H]2O[C@H](C)C[C@H](N(C)C)[C@H]2O)[C@](C)(O)C[C@@H](C)C(=O)[C@H](C)[C@@H](O)[C@]1(C)O [B, 4"-L-leu-gly-L-pro-erythromycin A]
[1]
  ED50: 3.1 mg/kg
[1]; total dose 0.6 mg/kg subcutaneous
  Mice Surviving: 2
[1]; total dose 2.6 mg/kg subcutaneous
  Mice Surviving: 5
[1]; total dose 10.5 mg/kg subcutaneous
  Mice Surviving: 6
[1]; total dose 41.1 mg/kg subcutaneous
  Mice Surviving: 10
[2]
  ED50: 181 mg/kg
[2]; total dose 3.2 mg/kg oral
  Mice Surviving: 0
[2]; total dose 12.8 mg/kg oral
  Mice Surviving: 0
[2]; total dose 51.3 mg/kg oral
  Mice Surviving: 0
[2]; total dose 205 mg/kg oral
  Mice Surviving: 6
[3]
  ED50: 0.6 mg/kg
[3]; total dose 0.6 mg/kg intraperitoneal, groups of ten mice
  Mice Surviving: 5
[3]; total dose 2.6 mg/kg intraperitoneal, groups of ten mice
  Mice Surviving: 10
[3]; total dose 10.5 mg/kg intraperitoneal, groups of ten mice
  Mice Surviving: 10
[3]; total dose 41.1 mg/kg intraperitoneal, groups of ten mice
  Mice Surviving: 10

## CC[C@H]1OC(=O)[C@H](C)[C@@H](O[C@H]2C[C@@](C)(OC)[C@@H](O)[C@H](C)O2)[C@H](C)[C@@H](O[C@@H]2O[C@H](C)C[C@H](N(C)C)[C@H]2O)[C@](C)(O)C[C@@H](C)C(=O)[C@H](C)[C@@H](O)[C@]1(C)O [Erythromycin Lactobionate, erythromycin A lactobionate]
Gastrointestinal tissue
  effect of the test compound on motility of the gastrointestinal tissue: pronounced stimulation of the stomach, duodenum, jejunum and ileum, with no apparent effect on the colon
